The values below come from PubChem BioAssay AID330 (DTP/NCI, 2004).

The test system of this assay is P388 leukemia ip, CD2F1 mice, survival T/C. The assay can be described thus: NCI In Vivo Anticancer Drug Screen. Data for tumor model P388 Leukemia (intraperitoneal) in CD2F1 (CDF1) mice. As to conditions: endpoint: median survival time, higher = longer survival. A digest of the protocol:
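Mice carrying the transplanted tumor received test compound or vehicle. Survival was recorded in each group, and the value is the treated-group measurement divided by that of the vehicle-treated control group.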

[1] abbreviates: dose: 100.0 mg/kg/injection, schedule: Q01DX001 (ip), vehicle: saline with Tween-80.
The mark [2] stands for this setting: dose: 200.0 mg/kg/injection, schedule: Q01DX001 (ip), vehicle: saline with Tween-80.
The mark [3] stands for this setting: dose: 50.0 mg/kg/injection, schedule: Q01DX009 (ip), vehicle: Klucel (hydroxypropylcellulose) (HPC).
[4] abbreviates: dose: 100.0 mg/kg/injection, schedule: Q01DX009 (ip), vehicle: Klucel (hydroxypropylcellulose) (HPC).
Where [5] appears, read: dose: 200.0 mg/kg/injection, schedule: Q01DX009 (ip), vehicle: Klucel (hydroxypropylcellulose) (HPC).
Setting [6] is: dose: 50.0 mg/kg/injection, schedule: Q01DX005 (ip), vehicle: saline with Tween-80.
Where [7] appears, read: dose: 100.0 mg/kg/injection, schedule: Q01DX005 (ip), vehicle: saline with Tween-80.
Setting [8] is: dose: 200.0 mg/kg/injection, schedule: Q01DX005 (ip), vehicle: saline with Tween-80.
Where [9] appears, read: dose: 100.0 mg/kg/injection, schedule: Q01DX009 (ip), vehicle: saline + Tween-80 + alcohol.
Setting [10] is: dose: 200.0 mg/kg/injection, schedule: Q01DX009 (ip), vehicle: saline + Tween-80 + alcohol.
Where [11] appears, read: dose: 100.0 mg/kg/injection, schedule: Q04DX003 (ip), vehicle: Klucel (hydroxypropylcellulose) (HPC).
The mark [12] stands for this setting: dose: 200.0 mg/kg/injection, schedule: Q04DX003 (ip), vehicle: Klucel (hydroxypropylcellulose) (HPC).
Where [13] appears, read: dose: 400.0 mg/kg/injection, schedule: Q04DX003 (ip), vehicle: Klucel (hydroxypropylcellulose) (HPC).
[14] abbreviates: dose: 50.0 mg/kg/injection, schedule: Q01DX009 (ip), vehicle: saline with Tween-80.
Setting [15] is: dose: 100.0 mg/kg/injection, schedule: Q04DX003 (ip), vehicle: saline.
[16] abbreviates: dose: 200.0 mg/kg/injection, schedule: Q04DX003 (ip), vehicle: saline.
The mark [17] stands for this setting: dose: 400.0 mg/kg/injection, schedule: Q04DX003 (ip), vehicle: saline.
The mark [18] stands for this setting: dose: 100.0 mg/kg/injection, schedule: Q04DX003 (ip), vehicle: saline with Tween-80.
Where [19] appears, read: dose: 200.0 mg/kg/injection, schedule: Q04DX003 (ip), vehicle: saline with Tween-80.
[20] abbreviates: dose: 400.0 mg/kg/injection, schedule: Q04DX003 (ip), vehicle: saline with Tween-80.

Several values for one entry are separate records, joined by “and”; a condition that tells them apart may be missing. Identical values can stand only once. Toxic doses and inconclusive results are not listed.

With `Cn1c2c([N+](=O)[O-])cccc2c(=O)c2c(O)cc3c(c21)C=CC(C)(C)O3`, the T/C is, setting by setting: under setting [1], 108 % of control; under setting [2], 110 % of control.
With `CC1CCC2(CC1=O)C(C)CC(=O)C2C(C)C` (stereo not drawn), the T/C was 112 % of control under setting [3]; 114 % of control under setting [4]; 95 % of control (dose: 100.0 mg/kg/injection, schedule: Q04DX003 (ip), vehicle: other); 98 % of control under setting [5]; 90 % of control (dose: 200.0 mg/kg/injection, schedule: Q04DX003 (ip), vehicle: other); 100 % of control (dose: 400.0 mg/kg/injection, schedule: Q04DX003 (ip), vehicle: other).
Take `CCOC(=O)NC(=S)Nc1cn(C)cc1[N+](=O)[O-]`: the T/C under setting [6] was 100 % of control, the T/C under setting [7] is 100 % of control and the T/C under setting [8] was 95 % of control.
In the case of `CC12CCCCC1=CC(=O)CC2` (stereo not drawn), the T/C runs as follows: (dose: 12.5 mg/kg/injection, schedule: Q01DX009 (ip), vehicle: other) 97 % of control; (dose: 25.0 mg/kg/injection, schedule: Q01DX009 (ip), vehicle: other) 100 % of control; (dose: 25.0 mg/kg/injection, schedule: Q01DX009 (ip), vehicle: saline + Tween-80 + alcohol) 100 % of control; (dose: 50.0 mg/kg/injection, schedule: Q01DX009 (ip), vehicle: other) 107 % of control; (dose: 50.0 mg/kg/injection, schedule: Q01DX009 (ip), vehicle: saline + Tween-80 + alcohol) 100 % of control; under setting [9], 104 % of control and 114 % of control. Also, under setting [10], the T/C is 106 % of control.
As for `COc1ccc(-c2coc3cc(O)ccc3c2=O)c(O)c1OC`, the T/C under setting [11] was 97 % of control, the T/C under setting [12] was 101 % of control and the T/C under setting [13] is 99 % of control.
Turning to `COc1cc2c(OC)cc1CCC1=CC(=O)C=C(CC2)C1=O`, the T/C is 99 % of control under setting [6], 103 % of control under setting [7] and 92 % of control under setting [8].
Consider `CCN(CC)CCCC(C)n1c2nc(=O)[nH]c(=O)c-2nc2ccc(Cl)cc21` (stereo not drawn), for which the T/C reads like this: (dose: 6.25 mg/kg/injection, schedule: Q01DX005 (ip), vehicle: saline) 100 % of control; (dose: 12.5 mg/kg/injection, schedule: Q01DX005 (ip), vehicle: saline) 107 % of control; (dose: 25.0 mg/kg/injection, schedule: Q01DX005 (ip), vehicle: saline) 112 % of control.
For the compound `CC12CCC3(C)OCC(CO)(CO1)N23` (stereo not drawn), the T/C was 91 % of control under setting [14]; 90 % of control (dose: 100.0 mg/kg/injection, schedule: Q01DX009 (ip), vehicle: saline with Tween-80); 91 % of control (dose: 200.0 mg/kg/injection, schedule: Q01DX009 (ip), vehicle: saline with Tween-80).
For the compound `Cc1cc(C)n(-c2ccnc(-n3nc(C)cc3C)n2)n1`, the T/C by setting is: under setting [15], 104 % of control; under setting [16], 114 % of control; under setting [17], 101 % of control.
As for `O=C1C(CN2CCCC2)C(O)=C(c2ccccc2)N1c1ccccc1` (stereo not drawn), the T/C was 102 % of control under setting [1]; 92 % of control under setting [2]; 92 % of control (dose: 400.0 mg/kg/injection, schedule: Q01DX001 (ip), vehicle: saline with Tween-80).
Take `O=C(O)CCCSC(=S)c1ccccc1`: the T/C by setting is: (dose: 12.5 mg/kg/injection, schedule: Q01DX009 (ip), vehicle: Klucel (hydroxypropylcellulose) (HPC)) 102 % of control; (dose: 25.0 mg/kg/injection, schedule: Q01DX009 (ip), vehicle: Klucel (hydroxypropylcellulose) (HPC)) 100 % of control; under setting [3], 98 % of control and 105 % of control; under setting [5], 101 % of control.
As to `O=C(O)CCS(=O)(=O)CCC(=O)O`, the T/C was 100 % of control under setting [18] and 104 % of control under setting [19].
On to `O=[N+]([O-])c1ccc([S][Sn]([c]2ccccc2)([c]2ccccc2)[c]2ccccc2)cc1`, for which the T/C runs as follows: (dose: 50.0 mg/kg/injection, schedule: Q04DX003 (ip), vehicle: saline) 101 % of control and 92 % of control; under setting [15], 98 % of control and 104 % of control and 109 % of control; under setting [16], 108 % of control and 109 % of control and 110 % of control; under setting [17], 101 % of control and 102 % of control and 120 % of control.
With `ClC(Cl)(Cl)C1[O][Sb]([c]2ccccc2)([c]2ccccc2)([c]2ccccc2)[O]1` (stereo not drawn), the T/C reads like this: under setting [3], 90 % of control; under setting [4], 101 % of control.
For `Nc1cccc(C(=O)O)c1O`, the T/C (dose: 50.0 mg/kg/injection, schedule: Q01DX009 (ip), vehicle: saline) was 100 % of control; the T/C (dose: 100.0 mg/kg/injection, schedule: Q01DX009 (ip), vehicle: saline) was 106 % of control; the T/C (dose: 200.0 mg/kg/injection, schedule: Q01DX009 (ip), vehicle: saline) was 104 % of control.
For `Cc1ccc(S(=O)(=O)N2CCCN(S(=O)(=O)c3ccc(C)cc3)CCSCCCSCC2)cc1`, the T/C was 98 % of control (dose: 25.0 mg/kg/injection, schedule: Q01DX009 (ip), vehicle: saline with Tween-80) and 87 % of control under setting [14].
For the compound `O=C(OCC1OC(n2cc(C(F)(F)F)c(=O)[nH]c2=O)CC1OC(=O)c1ccc([N+](=O)[O-])cc1)c1ccc([N+](=O)[O-])cc1` (stereo not drawn), the T/C (dose: 12.0 mg/kg/injection, schedule: Q01DX005 (ip), vehicle: Klucel (hydroxypropylcellulose) (HPC)) was 100 % of control; the T/C (dose: 25.0 mg/kg/injection, schedule: Q01DX005 (ip), vehicle: Klucel (hydroxypropylcellulose) (HPC)) was 108 % of control; the T/C (dose: 50.0 mg/kg/injection, schedule: Q01DX005 (ip), vehicle: Klucel (hydroxypropylcellulose) (HPC)) is 105 % of control and 108 % of control; the T/C (dose: 100.0 mg/kg/injection, schedule: Q01DX005 (ip), vehicle: Klucel (hydroxypropylcellulose) (HPC)) is 107 % of control.
`COc1cc2c(cc1OC)C(C1c3cc(OC)c(OC)cc3-c3c(OC)c(OC)cc4c3C1N(C)CC4)C1c3c(cc(OC)c(OC)c3-2)CCN1C` (stereo not drawn): the T/C by setting is: under setting [15], 99 % of control; under setting [16], 100 % of control; under setting [17], 97 % of control.
Regarding `CNC(=O)NNc1ccccc1`, the T/C by setting is: (dose: 25.0 mg/kg/injection, schedule: Q04DX003 (ip), vehicle: Klucel (hydroxypropylcellulose) (HPC)) 100 % of control; (dose: 50.0 mg/kg/injection, schedule: Q04DX003 (ip), vehicle: Klucel (hydroxypropylcellulose) (HPC)) 102 % of control; under setting [11], 97 % of control; under setting [12], 102 % of control; under setting [13], 103 % of control.
Consider `O=C(O)CSc1ccc(NC(=O)NC2CCCCC2)cc1`, for which the T/C is 100 % of control under setting [18], 100 % of control under setting [19] and 100 % of control under setting [20].
Take `Cc1nc2cc(C)[nH]c(=O)n2n1`: the T/C is, setting by setting: under setting [6], 105 % of control; under setting [7], 107 % of control; under setting [8], 104 % of control.
For the compound `COCC/C=C/CCl`, the T/C by setting is: under setting [18], 100 % of control; under setting [19], 100 % of control; under setting [20], 95 % of control.
Regarding `CSc1nc(=O)n(CCC#N)nc1SC`, the T/C is 98 % of control (dose: 60.0 mg/kg/injection, schedule: Q01DX005 (ip), vehicle: Klucel (hydroxypropylcellulose) (HPC)); 92 % of control (dose: 120.0 mg/kg/injection, schedule: Q01DX005 (ip), vehicle: Klucel (hydroxypropylcellulose) (HPC)); 92 % of control (dose: 240.0 mg/kg/injection, schedule: Q01DX005 (ip), vehicle: Klucel (hydroxypropylcellulose) (HPC)).
`Brc1ccc(/C=C/c2ccncc2)cc1`: the T/C under setting [6] was 104 % of control, the T/C under setting [7] is 99 % of control and the T/C under setting [8] is 93 % of control.
Turning to `C[CH2][Sn](=[O])[CH2]C`, the T/C (dose: 25.0 mg/kg/injection, schedule: Q01DX009 (ip), vehicle: saline) is 154 % of control.
On to `CCCCC/C(=C\c1ccccc1)C1OCC(COCC)O1` (stereo not drawn), for which the T/C under setting [9] was 119 % of control and the T/C under setting [10] is 118 % of control.
